Test results reported in patent US20260306460A1, “COMPOSITION FOR REMOVING AND INHIBITING SENESCENT CELLS, AND USES THEREOF” (LIFECEUTIX CO., LTD., priority 2023, published 2026).

Columns and labels:
[1] = tested on: HMGN1 secreted from senescent A549 cells; assay: HMGN1 secretion (ELISA) from senescent A549 cancer cells, Example 12; assay type: cell-based, human; conditions: senescent untreated = 100%; 30 μM; 90 μM for LX-305, 905, 1302, 1601, 1603, 2003, 2702, 2901, 3106; 270 μM for LX-1103, 2005, 2007;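 note: A549 cells made senescent by doxorubicin exposure, with DMSO-treated cells serving as the non-senescent control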
Experimental: Cells were treated with doxorubicin or control (DMSO) and cultured.

[2] = tested on: naturally aged C57BL6J mice; assay: Skin aging (dermal thickness, COL1A1 and SDF1 mRNA, hair loss) in naturally aged mice, Example 21-10, Table 25; assay type: in vivo, mouse; conditions: for Dermal Thickness (μm): mouse, in vivo
Experimental: (§1) 22-month-old female C57BL6J mice (KRIBB Laboratory Animal Resource Center) were acclimated to the experimental environment for one week, after which the aged mice were randomly assigned to experimental and control groups. Eight-week-old, non-aged mice served as controls. LX-403 was mixed in a 10% ethanol solution of PEG400 and administered orally at a concentration of 25 mg/kg daily for 21 days, or administered to the skin, joints, or eyes at a concentration of 1 μM. LX-1801 was mixed in distilled water with 4% DMSO, 30% PEG300, and 5% Tween80 and administered to the skin, joints, or eyes at a concentration of 0.4 μM daily for 21 days. LX-2001 was mixed in PBS and administered to the skin, joints, or eyes at a concentration of […] daily for 21 days. LX-2002 was mixed in distilled water with 4% DMSO, 30% PEG300, and 5% Tween80 and administered to the skin, joints, or eyes at a concentration of 2 μM daily for 21 days. […] LX-2005 was mixed in distilled water with 4% DMSO, 30% PEG300, and 5% Tween80 and administered to the skin, joints, or eyes at a concentration of 90 μM daily for 21 days. LX-2007 was mixed in distilled water with 4% DMSO, 30% PEG300, and 5% Tween80 and administered to the skin, joints, or eyes at a concentration of 90 μM daily for 21 days. […] LX-3002 was mixed in distilled water with 4% DMSO, 30% PEG300, and 5% Tween80 and administered orally at a concentration of 10 mg/kg daily for 21 days. […] LX-5411 was mixed in 5% PBS and administered orally at a concentration of 10 mg/kg daily for 21 days or administered to the skin, joints, or eyes at a concentration of 3 μM. LX-5701 was mixed in PBS and administered orally at a concentration of 360 mg/kg daily for 21 days. LX-6807 was mixed in saline and administered intraperitoneally at a concentration of 1 mg/kg daily for 21 days. LX-2101 or LX-2102 was mixed in PBS solution with 5% DMSO and administered intraperitoneally at a concentration of 20 mg/kg or 10 mg/kg, respectively, daily for 21 days. The control group received only the solution in the same volume. After the end of drug administration, the methods described in each example below were performed.
Frozen sections of skin tissue were stained with Hematoxylin/Eosin (H/E), and the dermal thickness was observed under an optical microscope. Furthermore, the mRNA levels of collagen (COL1A1), a skin component, and SDF1, which suppresses age-related pigmentation, were measured using qRT-PCR as described in Example 7-2 of WO2023-085787 A1. […] Furthermore, biweekly examinations were performed to assess the onset of hair loss due to aging.

[3] = tested on: doxorubicin-induced aged C57BL6J mice; assay: Hair loss area in doxorubicin-aged mice, Example 22-11, Table 40; assay type: in vivo, mouse; conditions: doxorubicin-induced aged mice; untreated 100 (±15.4)
Experimental: Eight-week-old male C57BL6J mice (KRIBB Laboratory Animal Resource Center) were acclimated to the experimental environment for one week. Afterwards, the anticancer agent doxorubicin was administered intraperitoneally at a concentration of 10 mg/kg, inducing aging for more than 10 days. The aging-induced mice were randomly assigned to experimental and control groups. LX-403 was mixed with a 10% ethanol solution of PEG400 and administered orally at a concentration of 25 mg/kg or intradermally at a concentration of 1 μM for 21 days. LX-1801 was mixed in distilled water with 4% DMSO, 30% PEG300, and 5% Tween80 and administered intradermally at a concentration of 0.4 μM daily for 21 days. LX-2001 was mixed in PBS and administered intradermally at a concentration of 2 μM daily for 21 days. LX-2002 was mixed in distilled water with 4% DMSO, 30% PEG300, and 5% Tween80 and administered intradermally at a concentration of 2 μM daily for 21 days. […] LX-2005 was mixed in distilled water with 4% DMSO, 30% PEG300, and 5% Tween80 and administered intradermally at a concentration of 90 μM daily for 21 days. LX-2007 was mixed in distilled water with 4% DMSO, 30% PEG300, and 5% Tween80 and administered intradermally at a concentration of 90 μM daily for 21 days. […] LX-3002 was mixed in distilled water with 4% DMSO, 30% PEG300, and 5% Tween80 and administered orally at a concentration of 10 mg/kg daily for 21 days. […] LX-5411 was mixed in 5% phosphate-buffered saline (PBS) and administered orally at a concentration of 10 mg/kg daily for 21 days or intradermally at a concentration of 3 μM. LX-5701 was mixed in PBS and administered orally at a concentration of 360 mg/kg daily for 21 days. LX-6807 was mixed in saline and administered intraperitoneally at a concentration of 1 mg/kg daily for 21 days. The control group received only the solution in the same volume. After the end of drug administration, the methods described in each example below were performed.
Alopecia is one of the most troubling side effects of chemotherapy, for which there is currently no treatment. Hair loss in mice induced to age by the anticancer drug was quantified using imaging software such as ImageJ (NIH) from digital photographs taken using a fixed camera position and magnification.

[4] = tested on: naturally aged C57BL6J mice; assay: Frailty (open field, wire hanging, grip strength, muscle and fat tissue) in naturally aged mice, Example 21-7, Table 23; assay type: in vivo, mouse; conditions: for Fat Mass (g): inguinal and epididymal fat, untreated aged 0.82 (±0.19); for Muscle Mass (g): quadriceps and gastrocnemius, untreated aged 0.64 (±0.06); for Grip Sterenght Test Strength (%) / Open Field Test Time in Center (%) / Wire Hanging Test Time (%): untreated aged = 100%
Experimental: as §1
To analyze frailty due to aging in mice, an activity test (open field test), an endurance test (wire hanging test), and a muscle strength and grip strength test (grip strength test) were performed using the same method as in Example 7-7 of WO2023-085787 A1. The table below quantitatively represents the results of activity, endurance, muscle strength, and grip strength, which are criteria for assessing frailty, under conditions in which aging was induced and the test compound was not administered or administered. The amount of each evaluation after aging was calculated as 100% and compared with the amount of each evaluation after treatment with the drug of the present invention.

[5] = naturally aged mice, untreated aged = 100
[6] = skin, naturally aged mice, untreated aged = 1

| Molecule | HMGN1 [1] [%] | Dermal Thickness (μm) [2] | Relative area of hair loss (%) [2, 5] | Col1a1 mRNA (Fold) [2, 6] | SDF1 mRNA (fold) [2, 6] | Relative area of hair loss [3] | Fat Mass (g) [4] | Muscle Mass (g) [4] | Grip Sterenght Test Strength (%) [4] | Open Field Test Time in Center (%) [4] | Wire Hanging Test Time (%) [4] | Col1a1 mRNA (Fold) ([2]; topical) | Relative area of hair loss (%) ([2]; topical) | SDF1 mRNA (fold) ([2]; topical) |
| --- | --- | --- | --- | --- | --- | --- | --- | --- | --- | --- | --- | --- | --- | --- |
| O=C(C(C[N+](=O)[O-])=NO)N1CCN(C(c2ccc(Cl)cc2)c2ccc(Cl)cc2)CC1 [LX-403] | 320 | 232 (±16.2) μm | 69 (±2.5) % | 2.4 (±0.2) Fold | 1.8 (±0.1) fold | 76 (±5.5) % | – | – | – | – | – | – | – | – |
| COC(=O)c1ccc([C@H]2c3[nH]c4ccccc4c3C[C@H](C(=O)OC)N2C(=O)CCl)cc1 [LX-405] | 310 | – | – | – | – | – | – | – | – | – | – | – | – | – |
| S=C(N/N=C1\CCCc2cccnc21)N1CCN(c2ccccn2)CC1 [LX-801] | 329 | – | – | – | – | – | – | – | – | – | – | – | – | – |
| C[C@@H]1CC[C@@]23C[C@H](O)C(=O)[C@@]2(O)[C@]1(C)[C@H](OC(=O)CCl)C[C@@H](C1=CCn2c(=O)n(-c4ccccc4)c(=O)n2C1)[C@@H]3C [LX-1801, (2S,3aS,4S,5R,7R,8S,8aS,11R)-7-(1,3-Dioxo-2-phenyl-2,3,5,8-tetrahydro-1H-[1,2,4]triazolo[1,2-a]pyridazin-6-yl)-2,3a-dihydroxy-4,8,11-trimethyl-3-oxooctahydro-1H-4,8a-propanoazulen-5-yl 2-Chloroacetate] | 295 | 222 (±37.4) μm | 82 (±6.6) % | 2.0 (±0.2) Fold | 2.1 (±0.2) fold | 78 (±5.4) % | – | – | – | – | – | – | – | – |
| C[C@H]1[C@H](C)CC[C@]2(C(=O)O)CC[C@]3(C)C(=CC[C@@H]4[C@@]5(C)CC[C@H](O)C(C)(C)[C@@H]5CC[C@]43C)[C@H]12 [LX-2001, Ursolic acid] | 328 | 241 (±46.6) μm | 73 (±8.3) % | 2.2 (±0.4) Fold | 1.6 (±0.2) fold | 80 (±6.9) % | – | – | – | – | – | – | – | – |
| C[C@H]1[C@H](C)CC[C@]2(C(=O)O)CC[C@]3(C)C(=CC[C@@H]4[C@@]5(C)C[C@@H](O)[C@H](O)C(C)(C)[C@@H]5CC[C@]43C)[C@H]12 [LX-2002, Corosolic acid] | 314 | 253 (±40.1) μm | 75 (±8.3) % | 1.9 (±0.3) Fold | 1.4 (±0.1) fold | 83 (±10.4) % | – | – | – | – | – | – | – | – |
| CC1(C)CC[C@]2(C(=O)O)CC[C@]3(C)C(=CC[C@@H]4[C@@]5(C)CC[C@H](O)C(C)(C)[C@@H]5CC[C@]43C)[C@@H]2C1 [LX-2003, Oleanolic acid] | 218 | 235 (±56.3) μm | 71 (±2.2) % | 2.3 (±0.4) Fold | 1.7 (±0.1) fold | 79 (±6.7) % | – | – | – | – | – | – | – | – |
| C=C(C)[C@@H]1CC[C@]2(C(=O)O)CC[C@]3(C)[C@H](CC[C@@H]4[C@@]5(C)CC[C@H](O)C(C)(C)[C@@H]5CC[C@]43C)[C@@H]12 [LX-2005, Betulinic acid] | 252 | 227 (±28.4) μm | 80 (±4.9) % | 1.7 (±0.2) Fold | 1.9 (±0.2) fold | 82 (±4.6) % | – | – | – | – | – | – | – | – |
| CC1(C)C=C2[C@H]3CC[C@@H]4[C@@]5(C)CCC(=O)C(C)(C)[C@@H]5CC[C@@]4(C)[C@]3(C)CC[C@@]2(C(=O)O)CC1 [LX-2007, Moronic acid] | 192 | 219 (±31.1) μm | 86 (±5.5) % | 1.6 (±0.3) Fold | 1.3 (±0.2) fold | 86 (±2.9) % | – | – | – | – | – | – | – | – |
| COC(=O)[C@]12CCC(C)(C)C[C@H]1[C@H]1C(=O)C=C3[C@@]4(C)C=C(C#N)C(=O)C(C)(C)[C@@H]4CC[C@@]3(C)[C@]1(C)CC2 [LX-2102, Bardoxolone methyl] | 233 | 234 (±9.6) μm | – | – | – | – | 0.97 (±0.16) g | 0.76 (±0.05) g | 116 (±9.2) % | 109 (±8.6) % | 120 (±7.5) % | 2.0 (±0.2) Fold | 89 (±7.5) % | 1.3 (±0.1) fold |
| CCCC\C=C/C=C/C=C\CCCCCCCC(=O)O [LX-2707, Punicic acid] | – | 237 (±19.4) μm | – | – | – | – | 0.98 (±0.20) g | 0.67 (±0.07) g | 117 (±3.6) % | 198 (±19.4) % | 135 (±13.3) % | – | – | – |
| COC(=O)[C@H]1Cc2c([nH]c3ccccc23)[C@H](c2ccc(S(C)(=O)=O)cc2)N1C(=O)CCl [LX-5401, methyl (1S,3R)-2-(2-chloroacetyl)-1-(4-(methylsulfonyl)phenyl)-2,3,4,9-tetrahydro-1H-pyrido[3,4-b]indole-3-carboxylate] | – | 222 (±26.3) μm | – | – | – | – | – | – | – | – | – | – | – | – |
| C#CC(=O)N1[C@@H](CCCC)Cc2cc(OC)ccc2[C@@H]1c1ccc(NC23CC4CC(CC(C4)C2)C3)cc1 [LX-5411] | – | 231 (±27.1) μm | 64 (±4.8) % | 2.7 (±0.1) Fold | 2.3 (±0.2) fold | 77 (±4.1) % | – | – | – | – | – | – | – | – |
| Tocofersolan [LX-3001] | 261 | 223 (±15.7) μm | – | – | – | – | 0.95 (±0.12) g | 0.70 (±0.1) g | 115 (±4.7) % | 187 (±12.9) % | 126 (±11.4) % | – | – | – |
